Laboratory results taken from patent publication US7192932B1, “Use of immunomodulating agents” (Lauras AS, priority 1997, dated 2007).
“And” between values parts separate entries of the source, which are not always exact repeats. Equal entries are not always repeated. “Also recorded” adds a separate entry of the source. Marks after values point to notes of the source that are not given here.

Experiments:
Type in all cases: cell-based, human
[1] = test system: CD4+ T lymphocytes; assay: BrdU incorporation (DNA synthesis) by flow cytometry, CD4+ subset
Experimental: (§1) We next, by flow cytometry analysis of BrdU incorporation, examined anti-CD3 stimulated T lymphocyte DNA synthesis in the presence and absence of Rp-8-Br-cAMPS in subsets of CD4^+ and CD8^+ T lymphocytes in 8 CVI patients with impaired lymphocyte function and 7 controls. In CVI patients there was a significant increase in percent of BrdU^+ CD4^+ T lymphocytes when cAMP antagonist was added to cell culture [55.8 (40.7–77.0)% versus 69.6 (50.5–90.0)%, without and with antagonist, respectively, P<0.03]. In most patients the maximal increase was found at the highest concentration of Rp-8-Br-cAMPS (1000 μM).

[2] = test system: CD8+ T lymphocytes; assay: BrdU incorporation (DNA synthesis) by flow cytometry, CD8+ subset; details: CVI patients and controls
Experimental: as §1

[3] = test system: PBMC; assay: anti-CD3 stimulated proliferation of PBMC
Experimental: Whereas more than 100% increase in anti-CD3 induced lymphocyte proliferation was found in 7 of the CVI patients, 5 of the patients had less than 40% increase in proliferation when the cAMP antagonist was added to cells in vitro.

[4] = test system: IL-2 receptor; assay: IL-2 receptor binding in anti-CD3 stimulated T cells (flow cytometry)
[5] = test system: peripheral blood CD3+ T cells; assay: TCR/CD3 (anti-CD3) stimulated T cell proliferation, [3H]-thymidine incorporation
Experimental: (§2) Human peripheral blood CD3+ T cells were purified by negative selection from 50 ml of heparin-treated blood from normal healthy donors (Ullevaal University Hospital Blood Center, Oslo. Norway) or patients. Briefly, peripheral blood mononuclear cells were isolated by density gradient (Lymphoprep, NycoMed, Oslo, Norway) centrifugation followed by negative selection using monodisperse magnetic beads directly coated with antibodies to CD14 and CD19 and rat anti-mouse IgG beads coated with antibodies to CD56 and a magnet. Magnetic beads were all from Dynal (Oslo, Norway, cat. no. 111.12, 111.04, and 110.11. respectively) whereas anti-CD56 antibody was from Pharmingen (San Diego, Calif., cat. no. 31660.d). All steps were performed at 4° C.
as §2, with “Peripheral blood” for “Human peripheral blood”, “Center, Oslo,” for “Center, Oslo.”, “selection using,” for “selection using”, “and 110.11,” for “and 110.11.”, “Calif., eat.” for “Calif., cat.”
Proliferation assays were performed by incubation of 0.75×10^6 CM+ T cells/ml in a 100 μl volume in that-bottom 96-well microtiter plates. Activation was achieved by subsequent addition of monodisperse magnetic beads coated with sheep anti-mouse IgG (Dynal. cat. no. 110.02) at a cell:bead ratio of 1:1 followed by addition of antiCD3 (clone SpvT3b) at a final dilution of 1:125,000 for the experiments shown. The optimal concentration of antibody was titrated carefully in the initial setup and parallel experiments at several different dilutions of antibody was always performed. Proliferation was analyzed by incubating, cells for 72 hours during which [^3H]thymidine was included for the last 16 hours. Cells were washed and harvested onto filters using a Scatron harvester (Suffolk, UK) and subsequently analyzed by β-scintillation counting. cAMP analogs, when used, were added 30 min prior to activation by addition of […] antibodies. 8-CPT-cAMP was from Sigorna (St. Louis, Mo.) and Sp- and Rp-8-Br-cAMPS were from BioLog Life Science Company (Bremen, Germany) and were all dissolved to concentrations of 4 to 10 mM in PBS and concentrations calculated using the extinction coefficients given by the manufacturer.

[6] = test system: IL-2; assay: IL-2 levels in supernatants from anti-CD3 stimulated T lymphocytes (ELISA)
Experimental: After 20 h of culture, cellfree supernatants were harvested and stored at −80° C. until analysis. The IL-2 levels in supernatants were determined by an ELISA ([…], Minneapolis, Minn.).

[7] = median in 7 CVI patients, 1000 μM
[8] = median in 8 healthy controls, most pronounced effect at 100 μM

Nc1ncnc2c1nc(Br)n2C1OC2COP(O)(=S)OC2C1O (stereo not drawn) [Rp-8-Br-cAMPS, Rp-8-Bromo-cAMP-phosphorothioate]
percent of BrdU+ CD4+ T lymphocytes ([1]; 8 CVI patients, with antagonist (without: 55.8 (40.7–77.0)%), maximal mostly at 1000 μM): 69.6 (50.5–90.0) %
Effect on DNA synthesis in CD4+ lymphocytes ([1]; healthy controls): No effect
Change in percent of BrdU+ CD8+ cells [2]: no significant increase
Increase in anti-CD3 induced lymphocyte proliferation ([3]; 5 of the 20 CVI patients): less than 40%
Increase in anti-CD3 induced lymphocyte proliferation ([3]; 7 of the 20 CVI patients): more than 100%
Effect on anti-CD3 stimulated lymphocyte proliferation ([3]; CVI group): significant and concentration-dependent improvement
Effect on anti-CD3 stimulated lymphocyte proliferation ([3]; normal blood donors): did not significantly alter proliferation
Effect on IL-2 receptor binding ([4]; CD4+ lymphocytes from CVI patients): moderate but significant increase
Effect on IL-2 receptor binding ([4]; cells from healthy controls): No such increase
Proliferation level relative to levels in healthy controls ([5]; CVI patients' T cells with Rp-8-Br-cAMPS): ~25%
IL-2 concentration with enhancing effect comparable to that of cAMP antagonist ([5]; CVI patients, FIG. 7): ~15 ng/mL
Combined enhancing effects of Rp-8-Br-cAMPS and IL-2 on T lymphocyte proliferation ([5]; CVI patients, 1000 μM Rp-8-Br-cAMPS with IL-2): additive
Increase in proliferation by Rp-8-Br-cAMPS Fold increase compared to untreated ([5]; T cells from HIV+ asymptomatic patients, n = 8, median (25 to 75% range)): 1.50(1.29–1.73)^b fold
Increase in proliferation by Rp-8-Br-cAMPS Fold increase compared to untreated ([5]; T cells from HIV+ symptomatic patients, n = 10, median (25 to 75% range)): 1.62(1.48–2.00)^w fold
Increase in TCR/CD3-induced proliferation by antagonist alone ([5]; T cells from HIV-infected patients, at higher concentrations, FIG. 3D): more than 2 fold
Reversal of Sp-8-Br-cAMPS inhibition of proliferation by complementary antagonist ([5]; T cells from a HIV-infected patient, FIG. 3C): further increased the proliferation above the levels in untreated cells
Reversal of Sp-8-Br-cAMPS inhibition of proliferation by complementary antagonist ([5]; T cells from normal blood donors / healthy controls, increasing concentrations): almost completely reversed
Increase in proliferation by Rp-8-Br-cAMPS Fold increase compared to untreated ([5]; T cells from normal controls, n = 8, median (25 to 75% range)): 1.01(0.93–1.14) fold
Increase in proliferation by Rp-8-Br-cAMPS Fold increase compared to untreated ([5]; T cells from patients on triple combination therapy, n = 9, median (25 to 75% range)): 1.53(1.11–1.77)^o fold
Increase in proliferation by Rp-8-Br-cAMPS (fold increase) ([5]; T cells of individual CVI patients #1-#7): 1.73 fold and 2.10 fold and 1.87 fold and 1.34 fold and 1.37 fold and 2.45 fold and 3.67 fold
Increase in proliferation by Rp-8-Br-cAMPS Fold increase compared to untreated ([5]; T cells of individual HIV-infected patients #1-#18 without protease inhibitor therapy (Table 2a)): 2.81 fold and 2.02 fold and 2.73 fold and 1.48 fold and 1.77 fold and 1.96 fold and 1.5 fold and 1.79 fold and 1.74 fold and 1.3 fold and 1.49 fold and 1.43 fold and 1.46 fold and 1.67 fold and 1.6 fold and 1.27 fold and 1.39 fold and 1.16 fold
Increase in proliferation by Rp-8-Br-cAMPS Fold increase compared to untreated ([5]; T cells of individual patients #1-#9 receiving highly active antiretroviral therapy (Table 2b)): 2.79 fold and 2.65 fold and 1.77 fold (2×) and 1.53 fold and 1.04 fold and 1.52 fold and 0.98 fold and 1.11 fold
Increase in proliferation by Rp-8-Br-cAMPS (fold increase) ([5]; median in 7 CVI patients): 1.87^+ fold
Increase in proliferation by Rp-8-Br-cAMPS (fold increase) ([5]; median in 8 healthy controls): 1.01 fold
Effect of antagonist alone on stimulated proliferation ([5]; normal T cells / healthy controls): No increased T cell proliferation; also recorded: did not alter proliferation; also recorded: did not further enhance T cell proliferation
Increase in anti-CD3 stimulated proliferation ([5]; purified T cells, 3 of 7 CVI patients): > 100%
Effect on IL-2 levels in supernatants ([6]; T lymphocytes from CVI patients): marked and concentration-dependent increase
Increase in IL-2 level by Rp-8-Br-cAMPS (fold increase) ([6]; individual CVI patients #1-#7, 1000 μM, 20 h culture): 4.50 fold and 4.37 fold and 2.66 fold and 2.49 fold and 2.34 fold and 1.89 fold and 1.77 fold
Highest IL-2 level when adding Rp-8-Br-cAMPS ([6]; individual CVI patients #1-#7, highest at 1000 μM, 20 h culture): 144 pg/mL and 284 pg/mL and 210 pg/mL and 249 pg/mL and 262 pg/mL and 246 pg/mL and 232 pg/mL
Highest IL-2 level when adding Rp-8-Br-cAMPS [6, 7]: 246^+ pg/mL
Increase in IL-2 level by Rp-8-Br-cAMPS (fold increase) [6, 7]: 2.50^+ fold
Highest IL-2 level when adding Rp-8-Br-cAMPS [6, 8]: 799 pg/mL
Increase in IL-2 level by Rp-8-Br-cAMPS (fold increase) [6, 8]: 1.28 fold
